Like-named read-outs stand apart in the source and are kept apart here.
What was measured:
[1] = tested on: rabbit anti-human C35 polyclonal antibody; assay: ELISA of rabbit C35 immune serum on C35 derived 15 amino acid peptides; assay type: binding
Excerpt: Rabbit polyclonal antibodies were raised to recombinant C35 employing standard immunization methods well known in the art. Overlapping peptides 15 amino acids in length were synthesized corresponding to the 115 amino acid long C35 protein sequence beginning at each amino acid residue from 1 to 101. Peptides are named based on the C35 position of the amino terminus residue in each 15 amino acid peptide. In each peptide that overlapped the cysteine residues at positions 30, 33 and 112 of the natural C35 sequence, alanine was substituted for cysteine to avoid formation of disulfide crosslinked peptides.
Wells of 96 well Maxisorp microtiter plates were coated with either 2 μg C35 protein, or 14 μg or 40 μg of the indicated 15 amino acid peptide derived from the C35 protein sequence and binding of antibodies in the rabbit C35 immune serum was determined as described in detail below. Data in Table 11, below, is shown for the positive and negative controls and for those C35 derived peptides for which positive binding was detected. Variations in the level of peptide binding can be due to either differences in the concentration of specific antibody species, differences in antibody affinity or a combination thereof.
C35 peptide 15-mers in 100% DMSO, 10 mg/ml, were aliquotted into 1.5 ml tubes, 40 μg/tube, under sterile conditions, then speed vacuumed to remove DMSO. The peptides were resuspended in PBS, pH7.2, 1 ml/tube, mixed well and spun down. Each peptide concentration (“peptide solution”) was 40 μg/ml. Peptide solution should be stored at −20° C. until use. Once thawed, it should be kept at 4° C. for no more than 2 weeks.
For 14 μg/ml peptide coated plates, 65 μl PBS, pH7.2 per well was added, followed by 35 μl peptide solution per well (for a total volume of 100 μl/well), and mixed well. For 40 μg/ml peptide coated plates, 100 μl of peptide solution was placed directly on the plate, 100 μl/well. Control C35 protein was diluted into PBS, pH7.2 to 2 μg/ml and added to the plates, 100 μl/well. Coated plates were incubated at room temperature for 2 hours, then 4° C. overnight.
Each plate was washed 3 times on a plate washer. […] The secondary antibody, HRP (horseradish peroxidase conjugated goat anti-rabbit Fc polyclonal antibody from Zymed, was diluted at a 1:20,000 dilution into assay diluent and added to the plates, 100 μl/well. The plates were incubated at room temperature for 2 hours. Plates were washed 7 times on a plate washer. Substrate was added as per the kit manufacturers instructions and incubated at room temperature in the dark for 15 minutes. The reaction was stopped by adding 2N H2SO4, 100 μl/well. Absorbance at 450-570 nm was read immediately.

[2] = nude mice, cited from earlier work
Colau.C35 tumor cells = assay: Combination radioimmunotherapy and chemotherapy, second experiment (FIG. 6, Table 5); assay type: in vivo, Swiss nude mice
Procedure: Swiss nude mice were grafted with Colau.C35 cells on day 0. Chemotherapy: Cisplatin administered at 2 mg/kg i.v. on days 15 & 18; 5FU/LV administered at 180/120 mg/kg i.v. on day 18. Radioimmunotherapy: 300 μCi (˜50 μg) of ^131I-labeled murine 1B3 anti-C35 IgG was administered on day 21.
In a second experiment, the effect of combination radioimmunotherapy with ^131I labeled 1B3 anti-C35 monoclonal antibody and chemotherapy with cisplatin at 2 mg/kg on day 15 and 18 was tested in Swiss nude mice grafted with Colau.C35 tumor cells. Cispaltin was administered on days 15 and 18 following tumor graft. 300 μCi of ^131I-labeled 1B3 anti-C35 monoclonal antibody was administered on day 21. Tumor growth was followed for up to 10 weeks.
In the same experiment, separate groups of Swiss nude mice grafted with Colau.C35 tumor cells were treated with either 5-FluoroUracil (5FU) at 180 mg/kg, together with Leucovorin (LV) at 120 mg/kg or this same chemotherapy regimen administered on day 18 followed by 300 μCi of ^131I-labeled 1B3 anti-C35 monoclonal antibody administered on day 21.

C35 protein [3] = target: T1, C35 protein (Homo sapiens, UniProt Q9BRT3); assay: Competitive binding ELISA; conditions: 1F2 versus 1B3
T1 sequence (Q9BRT3 1-115): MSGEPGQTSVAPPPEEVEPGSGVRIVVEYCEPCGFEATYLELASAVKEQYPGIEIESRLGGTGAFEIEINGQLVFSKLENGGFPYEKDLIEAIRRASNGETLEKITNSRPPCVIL
Procedure: (§1) Hybridoma cell lines IF2.4.1 and 1B3.6.1, specific for C35 polypeptides, were prepared using hybridoma technology. (Kohler et al., Nature 256:495 (1975); Kohler et al., Eur. J. Immunol. 6:511 (1976); Kohler et al., Eur. J. Immunol. 6:292 (1976); Hammerling et al., in: Monoclonal Antibodies and T-Cell Hybridomas, Elsevier, N.Y., pp. 571-681 (1981)). Briefly, hybridoma cell lines were generated using standard PEG fusion to the non-secreting myeloma cell line NS-1 (P3/NS1/1-AG4-1, ATCC #TIB-18) of splenocytes from BALB/c mice immunized with syngeneic BCA34 fibroblast tumor cells transduced to overexpress C35. Following PEG fusion to NS-1, the hybridomas were grown in methylcellulose semi-solid media. Approximately 2 weeks later, hybridoma colonies were isolated into 96 well plates and individual supernatants were tested for reactivity with C35 by ELISA, Western blot, and immunohistochemistry. Positive hybridomas colonies were subcloned and screened for reactivity twice to ensure clonality. Antibodies were isolated from hybridoma supernatants by protein G affinity purification using standard methods. […] In addition, we have developed intracellular staining flow cytometry assays for quantitative analysis using antibodies from hybridoma cell line 1F2 conjugated to Alexa-647 flourochrome. Each of these antibodies is distinct, yet both are specific for C35 protein. […]

[4] = target: T2, recombinant human C35 (rhC35) (Homo sapiens, UniProt Q9BRT3); assay: Epitope localization by Western blot of Lys-C digested rhC35; assay type: binding; conditions: native C35 sequence numbering; 1 μg/ml antibody
T2 construct: made in house; host or cells: E. coli
T2 sequence (Q9BRT3 1-115): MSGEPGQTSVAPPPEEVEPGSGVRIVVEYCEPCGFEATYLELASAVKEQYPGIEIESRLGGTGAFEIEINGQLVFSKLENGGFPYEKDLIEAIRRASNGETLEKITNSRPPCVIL
Excerpt: (§2) To localize the epitope specificity of 1B3 and 1F2 antibodies, recombinant human C35 (rhC35) synthesized with a 6× His tag in E. coli was digested with Lys-C endoproteinase. This enzyme cuts after lysine (K) residues in the protein sequence. […] The full sequence of rhC35, including the amino terminal 6× His tag addition is shown. Amino acid positions are numbered relative to the amino terminal methionine (M) of the native human sequence. Note that digestion at the first and third lysine followed by negatively charged residues is inefficient and some longer combination fragments may be generated. Lys-C endoproteinase was added to purified rhC35 at a […] weight ratio and incubated for 18 hours at 37° C. in 25 mM Tris, pH 8.0. The digest was ethanol precipitated and resolubilized in reducing Tricine sample buffer. After heating 5 minutes at 100° C., samples were separated by electrophoresis on a 16% Tricine gel (Invitrogen). Peptides were transferred to PVDF membranes and the blots depicted in FIG. 10 were either stained with Coomassie blue (lanes 1-3 of both left and right panels) to detect all peptides or processed with one of the following: 1 μg/ml of the murine 1F2 anti-C35 antibody followed by alkaline phosphatase conjugated goat anti-mouse antibody (lane 4 of left panel); 1 μg/ml of the 1B3 anti-C35 immunoglobulin variable regions linked to human constant regions (MAb11) followed by alkaline phosphatase conjugated goat anti-human antibody (lane 5 of left panel); or anti-6× His tag mouse antibody (Amersham) followed by alkaline phosphatase conjugated goat anti-mouse antibody (lane 4 and 5 of right panel). BCIP/NBT substrate was added and developed to detect the secondary reagents. Molecular weight markers are indicated in the flanking lanes of both panels.
(§3) In FIG. 10, the indicated band A migrates at the position of undigested rhC35. Note that band B stains with 1F2 but not MAb11 (1B3) anti-C35 antibody while band C stains with neither 1F2 nor MAb11 (1B3) antibody. Since bands B and C both do stain with anti-6× His tag antibody to the 6× His tag at the amino terminus of rhC35, it may be concluded that both fragments lack C-terminal peptide fragments. […] This epitope is not required for staining with 1F2.

C35 protein [5] = target: T1, C35 protein; assay: ELISA and Western Blot of hybridoma antibodies; assay type: binding; conditions: ELISA and Western Blot assays
Procedure: as §1

[6] = target: T3, recombinant human C35 (rhC35) (Homo sapiens, UniProt Q9BRT3); assay: Epitope localization by Western blot of Lys-C digested rhC35; assay type: binding; conditions: Western blot, 1 μg/ml antibody
T3 construct: made in house; host or cells: E. coli
T3 sequence (Q9BRT3 1-52): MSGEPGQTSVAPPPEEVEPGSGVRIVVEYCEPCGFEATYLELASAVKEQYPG
Excerpt: as §2, §3

[7] = target: T4, recombinant human C35 (rhC35) (Homo sapiens, UniProt Q9BRT3); assay: as above; assay type: binding; conditions: Western blot, 1 μg/ml antibody; remark: listed apart in the source
T4 construct: made in house; host or cells: E. coli
T4 sequence (Q9BRT3 1-104): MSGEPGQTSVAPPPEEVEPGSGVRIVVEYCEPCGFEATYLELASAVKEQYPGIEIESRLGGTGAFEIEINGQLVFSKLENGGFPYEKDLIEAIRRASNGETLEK
Excerpt: as §2, §3

[8] = 14 μg/ml peptide coated plates, 100 ng/ml primary antibody (C35 protein control coated at 2 μg/ml)
[9] = 40 μg/ml peptide coated plates, 1 μg/ml primary antibody (C35 protein control coated at 2 μg/ml)
[10] = literature values (footnotes 3-5)
[11] = non-toxic dose at indicated schedule

FPYEKDLLEAIRRAS [Peptide P83]
Absorbance @ 450-570 nm [1, 8]: 0.025
Absorbance @ 450-570 nm [1, 9]: 0.19

CCc1c2c(nc3ccc(OC(=O)N4CCC(N5CCCCC5)CC4)cc13)-c1cc3c(c(=O)n1C2)COC(=O)[C@]3(O)CC [Irinotecan]
Maximum Tolerated Dose [2, 10]: 15 mg/kg

O=P1(N(CCCl)CCCl)NCCCO1 (centres unmarked) [Cyclophosphamide]
Maximum Tolerated Dose [2, 11]: No toxicity^2

Nc1ccn([C@@H]2O[C@H](CO)[C@@H](O)C2(F)F)c(=O)n1 [Gemcitabine]
Maximum Tolerated Dose [2, 11]: No toxicity^5

CCC1=C[C@@H]2CN(C1)Cc1c([nH]c3ccccc13)[C@@](C(=O)OC)(c1cc3c(cc1OC)N(C)[C@H]1[C@@](O)(C(=O)OC)[C@H](OC(C)=O)[C@]4(CC)C=CCN5CC[C@]31[C@@H]54)C2 [Vinorelbine]
Maximum Tolerated Dose [2, 10]: 20 mg/kg

N.N.[Cl][Pt][Cl] [Cisplatin alone, cisplatin]
inhibition of Colau.C35 tumor growth (Colau.C35 tumor cells; cisplatin 2 mg/kg days 15 and 18, 5FU/LV 180/120 mg/kg day 18, 300 μCi ^131I-1B3 day 21): some inhibition
LCK = Log Cell Kill = TDD/3.32 (Colau.C35 tumor cells; same regimens): 0.20
T−C = difference in time for treated and control tumors to reach a given volume (Colau.C35 tumor cells; tumor volume 1200 mm^3, cisplatin 2 mg/kg days 15 and 18, 5FU/LV 180/120 mg/kg day 18, 300 μCi ^131I-1B3 day 21): 5 days
TDD = Tumor doubling delay = T−C/tumor volume doubling time of untreated (Colau.C35 tumor cells; tumor volume 1200 mm^3, same regimens): 0.66

B1: 1B3: mouse monoclonal anti-C35 antibody from hybridoma 1B3, gamma1 isotype, kappa light chain; VH SEQ ID NO:8, VK SEQ ID NO:10 (antibody, listed as Mus sp., V domains shown)
VH: EVQLQESGPSLVKPSQTLSLTCSVTGDSITSGYWNWIRKFPGNKLEYVGYISYSGGTYYNPSLKSRISITRDTSKNHYYLQLNSVTTEDTATYYCARGAYYGGAFFPYFDVWGAGTTVTVSS
VL: DVQITQSPSFLAASPGETITINCRASKYISKHLVWYQEKPGETKKLLIYSGSTLQSGLPSRFSGSGSGTDFTLTISSLEPEDFAMYYCQQHNEYPLTFGAGTKLELK
epitope comparison by competition (C35 protein [3]): bind different epitopes of the C35 protein
epitope specificity [4]: residues 105-115
binding to recombinant C35 protein (C35 protein [5]): specifically bind recombinant C35 protein

B2: MAb11 (1B3): 1B3 anti-C35 immunoglobulin variable regions linked to human constant regions (antibody, V domains shown)
VH: EVQLQESGPSLVKPSQTLSLTCSVTGDSITSGYWNWIRKFPGNKLEYVGYISYSGGTYYNPSLKSRISITRDTSKNHYYLQLNSVTTEDTATYYCARGAYYGGAFFPYFDVWGAGTTVTVSS
VL: DVQITQSPSFLAASPGETITINCRASKYISKHLVWYQEKPGETKKLLIYSGSTLQSGLPSRFSGSGSGTDFTLTISSLEPEDFAMYYCQQHNEYPLTFGAGTKLELK
staining of approximately 8 kDa band C (in addition lacks residues 53-104) [6]: neither
staining of approximately 15 kDa band B (lacks C35 residues 105-115) [7]: not

B3: C35 protein: control C35 protein coated at 2 μg/ml, positive control of the peptide ELISA (protein, UniProt Q9BRT3 2-112, looked up)
Migration and invasion …: SGEPGQTSVAPPPEEVEPGSGVRIVVEYCEPCGFEATYLELASAVKEQYPGIEIESRLGGTGAFEIEINGQLVFSKLENGGFPYEKDLIEAIRRASNGETLEKITNSRPPC
Absorbance @ 450-570 nm [1, 8]: 3.765
Absorbance @ 450-570 nm [1, 9]: 3.5225

From patent US20050158323A1, “Methods of killing tumor cells by targeting internal antigens exposed on apoptotic tumor cells” (Vaccinex, Inc., priority 2003, published 2005)
